# Measured values published in patent publication US4959362A, “Pharmaceutical compositions containing certain ascorbic acid derivatives useful in the prophylaxis and treatment of disorders of the circulatory system” (Takeda Chemical Industries, Inc., priority 1983, dated 1990).
# How the values were obtained:
# [1] = test system: lipid peroxide formation in rat brain tissue homogenate; experiment: Inhibition of lipid peroxide formation in rat brain tissue homogenate (TBA method); assay type: biochemical, rat (male SD); details: 10^-5 M; for Inhibitory Effect (%) on lipid peroxide formation: n = 3, mean ± standard error, 37° C., 1 hour
# Description: Activity to inhibit lipid peroxide formation in rat brain tissue homogenate:
# Male SD rats (12-weeks old) were subjected to exsanguination under anesthesia with pentobarbital, then the brain was excised. The brain tissue was homogenized in a phosphate buffer solution (pH 7.4) to prepare a 5% homogenate. After incubation of the homogenate at 37° C. for 1 hour, the amount of lipid peroxides formed therein was determined by thiobarbituric acid (TBA) method in accordance with the report of Ohkawa et al. on Analytical Biochemistry 95 351, 1979.
# The test drug was added to the 5% homogenate before incubation so as to make the final concentration be 10^-5 M. The activity to inhibit the formation of lipid peroxides was compared with that of the reference group to which was added the solvent (DMSO), and shown by % inhibition.
# mice = experiment: Acute toxicity in mice; assay type: in vivo; details: 300 and 1000 mg/kg orally
# Description: Male Crj-ICR mice (4-weeks old, 21~26 g) were used. The animals, divided into groups, each consisting of six mice, were administered orally with compound (1-12) at the dosage of 300 or 1000 mg/kg. Then, each group was housed in a cage, and observed for 24 hours. The test drugs were suspended in gum arabic, and administered at the volume of 0.1 ml/10 g.
# [2] = Oxidation inhibitory activity: reduction of a stable free radical (DPPH); assay type: biochemical; details: for DPPH reducing activity compared with the test drug: FIG. 1
# Description: Oxidation inhibitory activity determined with the use of a stable radical: In accordance with the method of M. S. Brois [Nature, 181, 1199, 1958], the activity to reduce a stable free radical, α,α-diphenyl-β-picryl hydrazyl (DPPH), was determined, which was used as an index of the oxidation inhibitory activity. […] Then, 20 minutes later, the absorbance at a wavelength of 517 nm was measured with the use of a spectrophotometer.
# [3] = test system: renal disorders due to Fe^3+ -nitrilotriacetate (NTA); experiment: Effects on renal disorders in rats due to Fe^3+ nitrilotriacetate (NTA); assay type: in vivo, rat (male SLC-Wistar); details: 30 mg/kg orally; for Body Weight / Kidney Weight / Occult Blood Test (positive animals/animals) / Protein in urine / Volume of urine: n = 6, last day of the experiment
# Description: Effects to alleviate renal disorders in rats due to Fe^3+ nitrilotriacetate:
# Male SLC-Wistar rats (4-weeks old, 64~85 g) were used. The animals were housed individually in metabolism cages and allowed free access to feed and water. Body weight, volume of urine and protein in urine (BIO-RAD method) were determined every day, and occult blood reaction was also examined (Labstick method). On the last day of the experiment, the kidney was excised and weighed.
# The animals were orally administered once daily with test drugs or vehicles thereof (suspension in gum arabic), and, 40~60 minutes later, were injected intraperitoneally with nitrilotriacetate (NTA) or Fe^3+ -NTA. Fe^3+ -NTA was used in a form of mixture (1:4, molar ratio), and the dosages were 5 mg/kg in terms of Fe^3+ for 3 days and successively 10 mg/kg for 5 days.
# Test drugs were compound (1-12), vitamin C and vitamin E, and the dosages were all 30 mg/kg.
# [4] = test system: ventricular arrhythmias after coronary artery occlusion-reperfusion in rat hearts; experiment: Inhibition of ventricular arrhythmias during coronary artery occlusion-reperfusion in rat hearts; assay type: in vivo, rat (male SD); details: for Extrasystole / Mortality (animals) / Mortality (percentage) / Ventricular fibrillation Incidence (animals) / Ventricular fibrillation Incidence (percentage) / Ventricular tachycardia Incidence (animals) / Ventricular tachycardia Incidence (percentage) / Ventricular fibrillation Duration / Ventricular tachycardia Duration / occurrence of ventricular arrhythmias: oral; for Ventricular fibrillation Duration / Ventricular tachycardia Duration: average ±SEM; for occurrence of ventricular arrhythmias: 20 and 50 mg/kg of compound (1-12), 50 mg/kg of vitamin C or E
# Description: Action to inhibit ventricular arrhythmias occurred during coronary artery occlusion-reperfusion in rat hearts
# Male SD rats (9~13 - weeks old, 250~370 g) were used. The animals were subjected to thoractonomy under artificial respiration while anesthesia was maintained by administering pentobarbital. […] By recording standard limb lead II electrocardiograms, occurrence of ventricular arrhythmias was examined.
# The animals were administered, under non-anesthesia, with test drugs as a gum arabic suspension at the dosage of 30 mg/kg at the time of about 90 minutes and of 20 mg/kg at the time of about 45 minutes (total: 50 mg/kg), or at the dosage of 10 mg/kg each (total: 20 mg/kg) at the time of about 90 minutes and about 45 minutes prior to closure of the coronary artery. The results are shown in Table 4 in terms of the total amount of the dosage.
# Incidences of ventricular fibrillation and ventricular tachycardia are shown by the percentage of the number of animals presenting the symptoms relative to the number of animals subjected to the test, and the duration of the symptoms was shown in average ±SEM by seconds. Extrasystole is shown by the number of systole/min, and the mortality is shown by the percentage of the number of animals killed relative to the number of animals subjected to the test.
# [5] = test system: ischemic convulsive seizure (bilateral common carotid artery ligation); experiment: Inhibition of ischemic seizure due to ligation of bilateral common carotid arteries in SHR rats; assay type: in vivo, rat (male SHR)
# Description: Inhibition of ischemic seizure due to ligation of bilateral common carotid arteries in SHR rats
# Male SHR rats (22-weeks old, about 360 g) were used. Under light anesthesia with ether, the animals were subjected to midline incision at the neck and the bilateral common carotid arteries were singled, then ligated to cause cerebral ischemia. […] The animals were orally administered with test drugs as a gum arabic suspension 60 minutes before the ligation of the bilateral common carotid arteries.
# [6] = 100 mg/kg p.o., within 180 minutes
compound,measurement,setting,value
CCCCCCCCOC1=C(O)[C@@H]([C@@H](O)CO)OC1=O [Compound (1-2)],Inhibitory Effect (%) on lipid peroxide formation,[1],-6.6 ± 3.0%
CCCCCCCCCCOC1=C(O)[C@@H]([C@@H](O)CO)OC1=O [Compound (1-4)],Inhibitory Effect (%) on lipid peroxide formation,[1],40.0 ± 1.1%
"CCCCCCCCCCCCOC1=C(O)[C@@H]([C@@H](O)CO)OC1=O [Compound (1-6), 2-O-Dodecyl-L-ascorbic acid]",Inhibitory Effect (%) on lipid peroxide formation,[1],55.7 ± 26.5%
CCCCCCCCCCCCCCOC1=C(O)[C@@H]([C@@H](O)CO)OC1=O [Compound (1-8)],Inhibitory Effect (%) on lipid peroxide formation,[1],93.1 ± 5.3%
"CCCCCCCCCCCCCCCOC1=C(O)[C@@H]([C@@H](O)CO)OC1=O [Compound (1-9), 2-O-pentadecyl-L-ascorbic acid]",Inhibitory Effect (%) on lipid peroxide formation,[1],100.0 ± 0%
"CCCCCCCCCCCCCCCCOC1=C(O)[C@@H]([C@@H](O)CO)OC1=O [Compound (1-10), 2-O-hexadecyl-L-ascorbic acid]",Inhibitory Effect (%) on lipid peroxide formation,[1],78.5 ± 11.7%
"CCCCCCCCCCCCCCCCCCOC1=C(O)[C@@H]([C@@H](O)CO)OC1=O [Compound (1-12), 2-O-octadecylascorbic acid]",recovery from sedation and ptosis,mice,≤ 3 h
same,state observed,mice,the state of sedation and ptosis were observed
same,lethality,mice; 24-hour-observation,no test animals of either group were killed
same,concentration at which DPPH is reduced in a manner dependent upon the amount used,"[2]; 20 minutes, 0.1 mM DPPH ethanol solution, 517 nm",not less than 10^-5 M
same,Effect on renal disorders,[3],renal disorders were alleviated
same,occult blood detection,[3],"only in half of the test animals, occult blood was detected"
same,urine volume and urinary protein compared with vehicle,[3],significatly less
same,weight of kidney compared with vehicle,[3],significantly less
same,Body Weight,[3],95.5 ± 3.0 g
same,Kidney Weight,[3],56.5 ± 2.0 mg
same,Occult Blood Test (positive animals/animals),[3],3/6
same,Protein in urine,[3],8.1 ± 2.1 mg/day
same,Volume of urine,[3],7.4 ± 1.3 mL/day
same,Activity on lipid peroxide formation,[1],higher activity
same,Inhibitory Effect (%) on lipid peroxide formation,[1],88.6 ± 6.8%
same,Extrasystole,[4]; 20 mg/kg total,3.3 ± 0.8 systole/min
same,Mortality (animals),[4]; 20 mg/kg total,1/17
same,Mortality (percentage),[4]; 20 mg/kg total,6 percentage
same,Ventricular fibrillation Incidence (animals),[4]; 20 mg/kg total,9/17
same,Ventricular fibrillation Incidence (percentage),[4]; 20 mg/kg total,53 percentage
same,Ventricular tachycardia Incidence (animals),[4]; 20 mg/kg total,11/17
same,Ventricular tachycardia Incidence (percentage),[4]; 20 mg/kg total,65 percentage
same,Ventricular fibrillation Duration,[4]; 20 mg/kg total,31.0 ± 28.2 s
same,Ventricular tachycardia Duration,[4]; 20 mg/kg total,10.2 ± 3.2 s
same,Extrasystole,[4]; 50 mg/kg total,1.1 ± 0.3 systole/min
same,Mortality (animals),[4]; 50 mg/kg total,0/9
same,Mortality (percentage),[4]; 50 mg/kg total,0 percentage
same,Ventricular fibrillation Incidence (animals),[4]; 50 mg/kg total,2/9
same,Ventricular fibrillation Incidence (percentage),[4]; 50 mg/kg total,22 percentage
same,Ventricular tachycardia Incidence (animals),[4]; 50 mg/kg total,2/9
same,Ventricular tachycardia Incidence (percentage),[4]; 50 mg/kg total,22 percentage
same,Ventricular fibrillation Duration,[4]; 50 mg/kg total,1.2 ± 0.8 s
same,Ventricular tachycardia Duration,[4]; 50 mg/kg total,3.2 ± 2.6 s
same,frequency of occasional PVCs,[4]; 20 and 50 mg/kg,less significantly
same,mortality due to VF,[4]; 20 and 50 mg/kg,low
same,period of time during which the symptom lasted,[4]; 20 and 50 mg/kg,shortened
same,occurrence of ventricular arrhythmias,[4],suppressed significantly and depending on the dosages
same,delay of appearance of the convulsion,"[5]; 100 mg/kg orally, versus vehicle",about 40 minutes
same,Ischemic convulsive seizure Time,"[5]; 100 mg/kg p.o., n = 5",199 min
same,Ischemic convulsive seizure Incidence (%),[5]; [6],20%
same,Ischemic convulsive seizure Incidence (animals),[5]; [6],1/5
CCCCCCCCCCCCCCCCCCCCOC1=C(O)[C@@H]([C@@H](O)CO)OC1=O [Compound (1-13)],Inhibitory Effect (%) on lipid peroxide formation,[1],95.4 ± 4.6%
CCCCCCCCCCCCCCCCCCCCCCOC1=C(O)[C@@H]([C@@H](O)CO)OC1=O [Compound (1-14)],Inhibitory Effect (%) on lipid peroxide formation,[1],38.1 ± 16.6%
"O=C1O[C@H]([C@@H](O)CO)C(O)=C1O [Vitamin C, ascorbic acid]",DPPH reducing activity compared with the test drug,[2],activity equal to that of the test drug
same,Effect on renal disorders,[3],did not show significant effect for alleviating renal disorders
same,Body Weight,[3],89.2 ± 4.1 g
same,Kidney Weight,[3],64.5 ± 1.7 mg
same,Occult Blood Test (positive animals/animals),[3],5/6
same,Protein in urine,[3],10.7 ± 2.4 mg/day
same,Volume of urine,[3],10.3 ± 1.7 mL/day
same,Activity on lipid peroxide formation,[1],promoted the formation of lipid peroxides remarkably
same,Inhibitory Effect (%) on lipid peroxide formation,[1],-71.6 ± 36.8%
same,Extrasystole,[4]; 50 mg/kg total,5.1 ± 1.0 systole/min
same,Mortality (animals),[4]; 50 mg/kg total,0/6
same,Mortality (percentage),[4]; 50 mg/kg total,0 percentage
same,Ventricular fibrillation Incidence (animals),[4]; 50 mg/kg total,6/6
same,Ventricular fibrillation Incidence (percentage),[4]; 50 mg/kg total,100 percentage
same,Ventricular tachycardia Incidence (animals),[4]; 50 mg/kg total,6/6
same,Ventricular tachycardia Incidence (percentage),[4]; 50 mg/kg total,100 percentage
same,Ventricular fibrillation Duration,[4]; 50 mg/kg total,9.7 ± 2.5 s
same,Ventricular tachycardia Duration,[4]; 50 mg/kg total,19.0 ± 3.0 s
same,occurrence of ventricular arrhythmias,[4],no significant effects
CCCCCCCCCCCCCCCCCCOC1=C(O)C(=O)O[C@@H]1[C@@H](O)CO [reference compound],Inhibitory Effect (%) on lipid peroxide formation,[1],45.4 ± 8.7%
Vitamin E [reference compound],DPPH reducing activity compared with the test drug,[2],activity equal to that of the test drug
same,Effect on renal disorders,[3],substantially the same effects
same,occult blood detection,[3],"in more than half of the test animals, occult blood test was positive"
same,Body Weight,[3],99.3 ± 2.3 g
same,Kidney Weight,[3],54.3 ± 2.7 mg
same,Occult Blood Test (positive animals/animals),[3],4/6
same,Protein in urine,[3],6.3 ± 1.4 mg/day
same,Volume of urine,[3],9.0 ± 1.0 mL/day
same,Inhibitory Effect (%) on lipid peroxide formation,[1],44.9 ± 11.7%
same,Extrasystole,[4]; 50 mg/kg total,7.0 ± 4.1 systole/min
same,Mortality (animals),[4]; 50 mg/kg total,1/10
same,Mortality (percentage),[4]; 50 mg/kg total,10 percentage
same,Ventricular fibrillation Incidence (animals),[4]; 50 mg/kg total,6/10
same,Ventricular fibrillation Incidence (percentage),[4]; 50 mg/kg total,60 percentage
same,Ventricular tachycardia Incidence (animals),[4]; 50 mg/kg total,7/10
same,Ventricular tachycardia Incidence (percentage),[4]; 50 mg/kg total,70 percentage
same,Ventricular fibrillation Duration,[4]; 50 mg/kg total,43.4 ± 36.0 s
same,Ventricular tachycardia Duration,[4]; 50 mg/kg total,22.3 ± 9.7 s
same,occurrence of ventricular arrhythmias,[4],no significant effects
